Among the data in ChEMBL document CHEMBL1135773, “Purine and pyrimidine (P2) receptors as drug targets” (J Med Chem, 2002) are EC50 values, retold here.

What is called EC50 is the concentration giving half of the maximal effect.

Molecules are shown by their SMILES.

Assay [1] concerns the target P2Y purinoceptor 1 (Meleagris gallopavo, UniProt P49652). In words: Evaluated for agonist activity against phospholipase C coupled P2Y purinoceptor 1 (P2Y1) of turkey erythrocytes. The format is functional.
The target of assay [2] is T1, P2X purinoceptor 1 (Homo sapiens, UniProt P51575).
T1 sequence (P51575 whole entry): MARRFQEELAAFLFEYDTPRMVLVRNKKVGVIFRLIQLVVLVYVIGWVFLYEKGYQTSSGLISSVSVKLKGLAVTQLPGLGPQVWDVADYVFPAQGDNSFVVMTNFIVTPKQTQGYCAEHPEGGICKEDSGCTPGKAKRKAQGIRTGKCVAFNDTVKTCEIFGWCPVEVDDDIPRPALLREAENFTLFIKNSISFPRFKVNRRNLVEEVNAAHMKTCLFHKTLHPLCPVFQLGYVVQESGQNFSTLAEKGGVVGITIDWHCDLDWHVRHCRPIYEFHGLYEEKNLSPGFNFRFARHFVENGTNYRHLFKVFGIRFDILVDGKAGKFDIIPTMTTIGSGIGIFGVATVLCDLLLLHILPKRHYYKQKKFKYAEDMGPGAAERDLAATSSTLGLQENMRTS
As to the kind of experiment: Antagonist activity against recombinant human P2X purinoceptor 1 (P2X1 ). In kind it is functional.

The target in assay [3] is P2X purinoceptor 6 (Rattus norvegicus, UniProt P51579). In words: Antagonist activity against recombinant rat P2X purinoceptor 6 (P2X6 ). In kind it is functional.
Chain of P2X purinoceptor 6 (P51579 whole entry): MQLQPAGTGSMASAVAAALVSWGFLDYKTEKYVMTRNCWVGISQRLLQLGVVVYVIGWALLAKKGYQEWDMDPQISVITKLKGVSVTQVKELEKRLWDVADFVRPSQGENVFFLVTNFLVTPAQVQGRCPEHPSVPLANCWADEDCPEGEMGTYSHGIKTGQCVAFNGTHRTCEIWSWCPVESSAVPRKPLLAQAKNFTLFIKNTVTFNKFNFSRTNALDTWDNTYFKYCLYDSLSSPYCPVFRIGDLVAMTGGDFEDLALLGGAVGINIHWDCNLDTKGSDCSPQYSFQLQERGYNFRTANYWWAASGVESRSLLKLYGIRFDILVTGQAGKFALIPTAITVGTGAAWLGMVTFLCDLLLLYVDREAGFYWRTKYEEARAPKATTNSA
In assay [4] the target is T2, P2X purinoceptor 7 (Homo sapiens, UniProt Q99572).
T2 sequence (Q99572 whole entry): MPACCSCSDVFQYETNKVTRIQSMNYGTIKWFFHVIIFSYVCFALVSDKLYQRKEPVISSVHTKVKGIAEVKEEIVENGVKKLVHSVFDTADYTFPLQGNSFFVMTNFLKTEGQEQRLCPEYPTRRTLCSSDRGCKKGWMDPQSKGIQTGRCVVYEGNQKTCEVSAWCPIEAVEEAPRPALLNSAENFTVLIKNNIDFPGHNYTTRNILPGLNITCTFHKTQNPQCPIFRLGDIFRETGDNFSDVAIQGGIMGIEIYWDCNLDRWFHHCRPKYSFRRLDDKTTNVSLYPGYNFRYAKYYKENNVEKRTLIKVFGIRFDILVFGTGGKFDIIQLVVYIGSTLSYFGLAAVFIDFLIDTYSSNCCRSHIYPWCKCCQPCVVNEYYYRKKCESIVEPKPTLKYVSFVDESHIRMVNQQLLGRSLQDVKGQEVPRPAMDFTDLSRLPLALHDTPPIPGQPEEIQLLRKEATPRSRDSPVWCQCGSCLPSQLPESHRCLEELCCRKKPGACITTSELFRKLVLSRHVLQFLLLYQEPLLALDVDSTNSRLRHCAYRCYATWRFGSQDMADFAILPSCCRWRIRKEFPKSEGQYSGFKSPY
As to the kind of experiment: Antagonist activity against recombinant human P2X purinoceptor 7 (P2X7). In kind it is functional.

Assay [5] concerns the target T3, P2X purinoceptor 2 (Rattus norvegicus, UniProt P49653).
T3 sequence (P49653 whole entry): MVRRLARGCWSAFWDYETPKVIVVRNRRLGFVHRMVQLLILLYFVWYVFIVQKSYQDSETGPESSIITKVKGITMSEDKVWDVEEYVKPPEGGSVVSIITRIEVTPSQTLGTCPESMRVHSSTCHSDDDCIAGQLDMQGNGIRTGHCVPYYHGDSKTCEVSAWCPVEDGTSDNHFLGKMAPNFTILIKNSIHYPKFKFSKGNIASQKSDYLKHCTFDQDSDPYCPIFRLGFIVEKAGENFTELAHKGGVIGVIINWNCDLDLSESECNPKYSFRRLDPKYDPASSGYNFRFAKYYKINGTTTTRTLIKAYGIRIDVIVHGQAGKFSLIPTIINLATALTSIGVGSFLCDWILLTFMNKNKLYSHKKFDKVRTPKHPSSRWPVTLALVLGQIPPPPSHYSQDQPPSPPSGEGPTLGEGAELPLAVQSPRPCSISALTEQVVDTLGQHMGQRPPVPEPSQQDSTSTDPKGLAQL
As to the kind of experiment: Antagonist activity against recombinant rat receptor P2X purinoceptor 2 (P2X2) at 10 uM, expressed in Xenopus oocytes. In kind it is functional, cell-based, Oocyte.

The target in assay [6] is T4, P2X purinoceptor 5 (Rattus norvegicus, UniProt P51578).
T4 sequence (P51578 whole entry): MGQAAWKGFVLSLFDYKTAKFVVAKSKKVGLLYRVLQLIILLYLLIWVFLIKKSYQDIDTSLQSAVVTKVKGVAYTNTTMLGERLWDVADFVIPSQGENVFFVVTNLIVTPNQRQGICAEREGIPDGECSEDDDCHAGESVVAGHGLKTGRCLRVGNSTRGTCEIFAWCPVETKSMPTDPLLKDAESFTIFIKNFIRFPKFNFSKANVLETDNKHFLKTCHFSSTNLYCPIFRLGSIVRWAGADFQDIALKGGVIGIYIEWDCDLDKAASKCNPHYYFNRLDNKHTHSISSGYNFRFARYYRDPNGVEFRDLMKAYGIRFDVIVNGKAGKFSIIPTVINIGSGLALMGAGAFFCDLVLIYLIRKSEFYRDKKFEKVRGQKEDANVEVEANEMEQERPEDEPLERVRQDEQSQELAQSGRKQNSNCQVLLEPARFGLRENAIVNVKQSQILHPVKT
In words: Antagonist activity against recombinant rat P2X purinoceptor 5 (P2X5). The format is functional.

Assay [7] has as its target T5, P2X purinoceptor 4 (Rattus norvegicus, UniProt P51577).
T5 sequence (P51577 whole entry): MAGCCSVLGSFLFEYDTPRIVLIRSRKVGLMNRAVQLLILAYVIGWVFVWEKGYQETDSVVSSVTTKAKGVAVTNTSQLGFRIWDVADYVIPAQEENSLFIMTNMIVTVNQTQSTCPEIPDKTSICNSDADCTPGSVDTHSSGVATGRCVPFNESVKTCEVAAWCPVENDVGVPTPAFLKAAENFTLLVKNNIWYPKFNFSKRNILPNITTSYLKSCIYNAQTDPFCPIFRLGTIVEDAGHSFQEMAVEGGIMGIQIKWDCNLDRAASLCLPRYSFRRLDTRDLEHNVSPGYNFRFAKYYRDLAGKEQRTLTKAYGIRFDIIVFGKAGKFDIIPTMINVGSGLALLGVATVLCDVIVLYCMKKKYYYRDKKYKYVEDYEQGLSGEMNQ
In words: Antagonist activity against recombinant rat P2X purinoceptor 4 (P2X4) at 30 uM, expressed in Xenopus oocytes. The format is functional, cell-based, Oocyte.

Assay [8] has as its target T6, P2X purinoceptor 3 (Homo sapiens, UniProt P56373).
T6 sequence (P56373 whole entry): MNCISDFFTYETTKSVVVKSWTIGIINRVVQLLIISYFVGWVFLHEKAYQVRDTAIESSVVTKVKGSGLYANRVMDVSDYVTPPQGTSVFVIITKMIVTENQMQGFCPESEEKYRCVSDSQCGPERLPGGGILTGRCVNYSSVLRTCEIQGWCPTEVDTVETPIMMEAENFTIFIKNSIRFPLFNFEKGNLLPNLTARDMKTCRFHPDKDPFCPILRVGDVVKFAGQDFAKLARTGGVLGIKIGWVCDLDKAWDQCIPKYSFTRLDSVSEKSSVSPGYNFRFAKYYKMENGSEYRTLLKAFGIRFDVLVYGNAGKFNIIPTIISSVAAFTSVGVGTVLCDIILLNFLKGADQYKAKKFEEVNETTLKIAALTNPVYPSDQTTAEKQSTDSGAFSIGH
As to the kind of experiment: Antagonist activity against recombinant human P2X purinoceptor 3 (P2X3 ). The format is functional.

The target of assay [9] is P2Y purinoceptor 12 (Rattus norvegicus, UniProt Q9EPX4). In words: Antagonist activity against phospholipase C coupled rat P2Y purinoceptor 12 (P2Y12). In kind it is functional.
Chain of P2Y purinoceptor 12 (Q9EPX4 whole entry): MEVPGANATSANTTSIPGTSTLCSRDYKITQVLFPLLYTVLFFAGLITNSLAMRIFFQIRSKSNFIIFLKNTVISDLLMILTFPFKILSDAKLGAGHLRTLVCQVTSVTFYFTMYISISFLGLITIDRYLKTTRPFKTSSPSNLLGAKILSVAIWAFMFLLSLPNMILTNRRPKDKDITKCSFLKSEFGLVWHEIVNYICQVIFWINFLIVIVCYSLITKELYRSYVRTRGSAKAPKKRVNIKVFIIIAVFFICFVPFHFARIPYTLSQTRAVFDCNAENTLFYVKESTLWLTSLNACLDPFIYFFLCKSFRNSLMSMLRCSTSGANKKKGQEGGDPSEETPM
Assay [10] deals with P2Y purinoceptor 4 (Rattus norvegicus, UniProt O35811). As to the kind of experiment: The compound was evaluated for antagonist activity against phospholipase C coupled recombinant rat P2Y purinoceptor 4 (P2Y4). The format is functional.
Chain of P2Y purinoceptor 4 (O35811 whole entry): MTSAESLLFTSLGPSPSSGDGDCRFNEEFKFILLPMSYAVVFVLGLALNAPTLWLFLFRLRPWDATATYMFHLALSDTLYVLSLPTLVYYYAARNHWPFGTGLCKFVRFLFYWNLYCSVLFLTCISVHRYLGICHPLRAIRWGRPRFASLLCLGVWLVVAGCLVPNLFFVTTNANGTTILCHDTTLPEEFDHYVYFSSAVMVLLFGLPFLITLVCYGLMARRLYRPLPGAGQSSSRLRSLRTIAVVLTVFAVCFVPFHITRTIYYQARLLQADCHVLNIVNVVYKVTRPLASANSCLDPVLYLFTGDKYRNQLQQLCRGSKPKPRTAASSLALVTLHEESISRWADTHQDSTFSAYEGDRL
The target in assay [11] is T7, P2X purinoceptor 4 (Homo sapiens, UniProt Q99571).
T7 sequence (Q99571 whole entry): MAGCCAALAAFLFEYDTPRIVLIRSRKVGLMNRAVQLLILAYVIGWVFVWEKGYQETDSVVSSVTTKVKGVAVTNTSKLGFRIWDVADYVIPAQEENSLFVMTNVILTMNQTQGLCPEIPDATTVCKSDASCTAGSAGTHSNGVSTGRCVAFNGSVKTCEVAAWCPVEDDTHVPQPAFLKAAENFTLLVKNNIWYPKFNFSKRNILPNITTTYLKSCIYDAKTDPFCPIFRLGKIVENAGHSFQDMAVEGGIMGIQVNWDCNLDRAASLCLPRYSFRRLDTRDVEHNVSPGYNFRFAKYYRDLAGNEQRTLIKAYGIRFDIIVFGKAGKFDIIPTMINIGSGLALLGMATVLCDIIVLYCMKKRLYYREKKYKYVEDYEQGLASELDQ
As to the kind of experiment: Antagonist activity against recombinant human P2X purinoceptor 4 (P2X4). In kind it is functional.

For assay [12], the target named is P2Y purinoceptor 2 (Homo sapiens, UniProt P41231). In words: Evaluated for agonist activity against phospholipase C coupled recombinant human P2Y purinoceptor 2 (P2Y2). The format is functional.
Chain of P2Y purinoceptor 2 (P41231 whole entry): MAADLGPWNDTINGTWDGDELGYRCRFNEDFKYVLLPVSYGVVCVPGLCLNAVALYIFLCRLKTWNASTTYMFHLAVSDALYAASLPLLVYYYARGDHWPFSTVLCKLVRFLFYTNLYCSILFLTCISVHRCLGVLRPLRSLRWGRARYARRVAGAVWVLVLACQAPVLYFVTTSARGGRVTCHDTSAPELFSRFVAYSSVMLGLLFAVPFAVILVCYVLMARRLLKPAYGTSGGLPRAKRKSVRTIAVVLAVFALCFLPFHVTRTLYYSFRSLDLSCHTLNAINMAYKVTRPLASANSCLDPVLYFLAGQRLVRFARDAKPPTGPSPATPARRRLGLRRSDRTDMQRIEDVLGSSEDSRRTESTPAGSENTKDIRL
Assay [13] has as its target P2X purinoceptor 2 (Homo sapiens, UniProt Q9UBL9). In words: The compound was evaluated for antagonist activity against recombinant human receptor P2X purinoceptor 2 (P2X2 ). The format is functional.

Chain of P2X purinoceptor 2 (Homo sapiens, UniProt Q9UBL9) (Q9UBL9 whole entry): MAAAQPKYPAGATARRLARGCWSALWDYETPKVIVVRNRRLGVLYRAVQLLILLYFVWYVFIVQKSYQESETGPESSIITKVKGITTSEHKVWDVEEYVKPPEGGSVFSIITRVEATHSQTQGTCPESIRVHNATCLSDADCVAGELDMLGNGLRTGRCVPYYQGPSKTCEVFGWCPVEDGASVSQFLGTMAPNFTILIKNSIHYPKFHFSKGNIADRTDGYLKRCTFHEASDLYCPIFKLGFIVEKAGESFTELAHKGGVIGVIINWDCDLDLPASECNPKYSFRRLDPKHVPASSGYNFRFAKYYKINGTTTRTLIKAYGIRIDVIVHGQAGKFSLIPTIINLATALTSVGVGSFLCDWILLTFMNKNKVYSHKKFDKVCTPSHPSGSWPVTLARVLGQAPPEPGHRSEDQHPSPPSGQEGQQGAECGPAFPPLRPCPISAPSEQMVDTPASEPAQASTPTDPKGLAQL
Chain of P2Y purinoceptor 1 (P49652 whole entry): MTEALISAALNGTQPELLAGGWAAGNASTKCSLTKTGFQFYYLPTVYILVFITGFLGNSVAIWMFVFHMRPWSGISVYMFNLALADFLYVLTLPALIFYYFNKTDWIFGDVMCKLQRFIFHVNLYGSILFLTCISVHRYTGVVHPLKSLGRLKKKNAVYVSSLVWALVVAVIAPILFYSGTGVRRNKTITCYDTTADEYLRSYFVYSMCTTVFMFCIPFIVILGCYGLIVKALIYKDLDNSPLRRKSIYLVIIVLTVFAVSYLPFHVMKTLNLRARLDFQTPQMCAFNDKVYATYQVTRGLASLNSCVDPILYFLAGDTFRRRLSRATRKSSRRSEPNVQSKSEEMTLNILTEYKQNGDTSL

Turning to `Nc1ncnc2c1ncn2[C@@H]1O[C@H](COP(=O)(O)CP(=O)(O)OP(=O)(O)O)[C@@H](O)[C@H]1O` [DIPHOSPHOMETHYLPHOSPHONIC ACID ADENOSYL ESTER], the EC50 in assay [1] is greater than 100 µM; in assay [2] it was 0.2 µM; in assay [3], greater than 8 µM; in [4] it was greater than 100 µM; in assay [5], 100 µM; in [6], greater than 7 µM. Moreover, the EC50 in assay [7] was 33 µM; in assay [8] it was 0.74 µM; in assay [9], greater than 100 µM.

For the molecule `Nc1ncnc2c1ncn2[C@@H]1O[C@H](COP(=O)(O)OP(=O)(O)OP(=O)(O)OP(=O)(O)OC[C@H]2O[C@@H](n3cnc4c(N)ncnc43)[C@H](O)[C@@H]2O)[C@@H](O)[C@H]1O` [DIADENOSINE TETRAPHOSPHATE], the EC50 is 3 µM in assay [10]; 0.182 µM in assay [2]; 1 µM in assay [11]; 0.72 µM in assay [12]; 0.5 µM in [8]; 15 µM in assay [13].

On to `Nc1ncnc2c1ncn2[C@@H]1O[C@H](COP(=O)(O)OP(=O)(O)O)[C@@H](O)[C@H]1O` [ADENOSINE DIPHOSPHATE], for which the half-maximal effective concentration (EC50) in assay [2] was 10 µM; in assay [3], 11 µM; in assay [6], 18 µM; in assay [7], 28 µM; in assay [12], greater than 100 µM; in assay [8], greater than 100 µM. Also, the 50% effective concentration (EC50) is greater than 100 µM in assay [13] and 0.069 µM in assay [9].
